The values below come from US12209081B2 (Katholieke Universiteit Leuven, priority 2020, dated 2025).

Structures are written as SMILES.

mouse TRPM3α2 (mTRPM3) ion channel, sequence (J9SQF3 other isoform, or with tags, fused parts or gaps): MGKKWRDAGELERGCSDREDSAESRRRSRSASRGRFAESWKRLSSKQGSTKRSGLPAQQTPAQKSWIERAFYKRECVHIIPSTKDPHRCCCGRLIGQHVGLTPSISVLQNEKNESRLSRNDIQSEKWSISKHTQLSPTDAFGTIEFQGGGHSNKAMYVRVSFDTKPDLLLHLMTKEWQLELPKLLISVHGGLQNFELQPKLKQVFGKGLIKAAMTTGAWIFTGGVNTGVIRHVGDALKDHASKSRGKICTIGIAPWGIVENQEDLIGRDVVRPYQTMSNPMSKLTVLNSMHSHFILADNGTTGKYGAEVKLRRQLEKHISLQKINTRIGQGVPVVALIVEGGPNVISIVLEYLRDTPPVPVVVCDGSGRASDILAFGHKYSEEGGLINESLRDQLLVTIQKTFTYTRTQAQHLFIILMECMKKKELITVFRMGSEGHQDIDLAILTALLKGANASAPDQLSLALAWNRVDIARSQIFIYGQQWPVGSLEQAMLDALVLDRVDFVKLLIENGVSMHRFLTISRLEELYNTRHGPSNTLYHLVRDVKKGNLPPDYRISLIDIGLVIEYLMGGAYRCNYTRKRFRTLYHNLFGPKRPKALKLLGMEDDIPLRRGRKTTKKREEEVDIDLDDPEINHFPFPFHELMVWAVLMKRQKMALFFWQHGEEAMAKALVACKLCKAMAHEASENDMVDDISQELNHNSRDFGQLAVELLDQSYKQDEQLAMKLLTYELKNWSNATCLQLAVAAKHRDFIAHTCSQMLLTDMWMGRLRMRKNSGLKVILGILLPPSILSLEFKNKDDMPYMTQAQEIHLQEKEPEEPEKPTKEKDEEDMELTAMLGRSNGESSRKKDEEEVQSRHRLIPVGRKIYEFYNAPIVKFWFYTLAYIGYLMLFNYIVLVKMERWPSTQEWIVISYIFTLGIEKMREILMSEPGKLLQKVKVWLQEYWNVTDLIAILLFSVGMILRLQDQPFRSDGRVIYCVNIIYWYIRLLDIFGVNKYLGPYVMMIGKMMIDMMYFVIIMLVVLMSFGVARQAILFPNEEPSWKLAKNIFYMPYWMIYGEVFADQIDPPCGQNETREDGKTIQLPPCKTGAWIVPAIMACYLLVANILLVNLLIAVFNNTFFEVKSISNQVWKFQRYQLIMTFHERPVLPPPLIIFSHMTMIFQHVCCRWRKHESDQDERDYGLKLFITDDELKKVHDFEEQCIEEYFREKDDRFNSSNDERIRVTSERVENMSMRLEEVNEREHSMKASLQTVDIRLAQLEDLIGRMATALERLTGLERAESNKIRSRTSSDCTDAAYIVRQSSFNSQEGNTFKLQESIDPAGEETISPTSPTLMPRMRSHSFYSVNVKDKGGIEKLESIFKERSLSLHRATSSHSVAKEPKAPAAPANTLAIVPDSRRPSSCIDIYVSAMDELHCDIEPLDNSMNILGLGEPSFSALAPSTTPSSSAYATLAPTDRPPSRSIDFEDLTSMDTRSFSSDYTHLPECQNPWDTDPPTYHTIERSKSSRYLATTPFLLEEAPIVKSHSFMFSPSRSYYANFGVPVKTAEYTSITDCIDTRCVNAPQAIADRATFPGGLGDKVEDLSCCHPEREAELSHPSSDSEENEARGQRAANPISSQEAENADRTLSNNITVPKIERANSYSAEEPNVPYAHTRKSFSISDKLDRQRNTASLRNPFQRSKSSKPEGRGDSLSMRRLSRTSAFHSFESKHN

One experiment has as its target mouse TRPM3α2 (mTRPM3) ion channel (Mus musculus (Mouse), UniProt J9SQF3). The experiment is described as follows: TRPM3 ion channel driven Ca2+ uptake, Fluo-4 AM assay, mTRPM3alpha2 overexpressing flip-in HEK293 cells stimulated with pregnenolone sulfate. Type of experiment: cell-based. As to conditions: PS 50 μM, cpds 200-299. Here is the method: Part B Monitoring the TRPM3 Ion Channel Driven Ca^2+ Uptake.
In order to monitor the inhibition of the mouse TRPM3α2 (mTRPM3) ion channel by the compounds of the invention, a cellular system making use of an mTRPM3alpha2 or hTRPM3 overexpressing cell line (flip-in HEK293) was used. The TRPM3 channel was stimulated/opened with Pregnenolone sulfate (PS) (50 μM) which results in Ca^2+ influx.
For mTRPM3, the intracellular Ca^2+ was measured with a Calcium responsive dye. Fluor-4 AM ester (Invitrogen). Cells were cultured until a confluence of 80-90%, washed with Versene (Invitrogen) and detached from the surface by a short incubation with 0.05% Trypsin (Invitrogen). The trypsination process was stopped by the addition of complete cell culture medium (DMEM, glutamax, 10% FCS,NEAA,Pen-Strep). Cells were collected and resuspended in Krebs buffer without Calcium at RT.
Prior the cell seeding (±2000 cells/well into a black, 384 well plate (Greiner)) the diluted compound was added in the assay plate, together with the PS dissolved in Krebs buffer containing Calcium. […] Directly after cell addition the plates were read on an Envision fluorescence reader (Perkin Elmer) by an Excitation of 485 nm and emission at 535 nm.
Channel inhibition was calculated compared to a non-PS stimulated control versus a condition stimulated with PS (50 μM) with vehicle. The ability of the compounds of the invention to inhibit this activity was determined as: Percentage inhibition=[1-((RFU determined for sample with test compound present—RFU determined for sample with positive control inhibitor) divided by (RFU determined in the presence of vehicle—RFU determined for sample with positive control inhibitor))]*100.
Molecule `Cc1oc2ccc(OCc3nccn3C)cc2c1C(=O)NC1CCNCC1(F)F` (single isomer, unassigned) [cpd 205-En 1] gave an IC50 of 1 to 20 µM.
The same measure, in the same setting: the value for `Cc1oc2ccc(OCc3nccn3C)cc2c1C(=O)NC1CCNCC1(F)F` (single isomer, unassigned) [cpd 205-En 2] was under 1 µM; that for `CCOc1ncccc1COc1ccc2oc(C)c(C(=O)NC3CCNCC3(F)F)c2c1` (single isomer, unassigned) [cpd 207-En 1] was under 1 µM.
Same read-out and setting: the value for `Cc1ncsc1COc1ccc2oc(C)c(C(=O)NC(CO)C(=O)O)c2c1` (single isomer, unassigned) [cpd 270-En 1] was over 20 µM.

Staying with this experiment, now noted: PS 50 μM, cpds 300-399.
In turn, `Cc1ncsc1COc1ccc2oc(C(F)F)c(C(=O)NC3CCNCC3(F)F)c2c1` (single isomer, unassigned) [cpd 310-En 1] yielded an IC50 of under 1 µM.
On the same count and under the same terms, the value for `Cc1ncsc1COc1ccc2oc(C(F)F)c(C(=O)NC3CCNCC3(F)F)c2c1` (single isomer, unassigned) [cpd 310-En 2] was under 1 µM.
In the case of `O=C(NC1CCNCC1(F)F)c1c(C2CC2)oc2ccc(OCc3cccnc3C(F)(F)F)cc12` (single isomer, unassigned) [cpd 313-En 1], the IC50 is under 1 µM.
Still for that read-out and setting: the value for `O=C(NC1CCNCC1(F)F)c1c(C2CC2)oc2ccc(OCc3cccnc3C(F)(F)F)cc12` (single isomer, unassigned) [cpd 313-En 2] was 1 to 20 µM.
The molecule `Cc1ncsc1COc1ccc2oc(C)c(C(=O)NC(C)c3ncco3)c2c1` (single isomer, unassigned) [cpd 315-En 1] gave a 50% inhibitory concentration (IC50) of under 1 µM.
The molecule `Cc1ncsc1COc1ccc2oc(C)c(C(=O)NC(CO)C(F)(F)F)c2c1` (single isomer, unassigned) [cpd 316-En 1] gave a half-maximal inhibitory concentration (IC50) of under 1 µM.
The same measure, in the same setting: the value for `Cc1ncsc1COc1ccc2oc(C)c(C(=O)NC3COCCNC3=O)c2c1` (single isomer, unassigned) [cpd 317-En 1] was under 1 µM.
In turn, `Cc1oc2ccc(OCc3cccnc3N3CCC3)cc2c1C(=O)NC1CCNCC1(F)F` (single isomer, unassigned) [cpd 336-En 1] returned an IC50 of under 1 µM.
Same read-out and setting: the value for `Cc1oc2ccc(OCc3cccnc3OC(F)F)cc2c1C(=O)NC1CCNCC1(F)F` (single isomer, unassigned) [cpd 338-En 1] was under 1 µM; that for `Cc1oc2ccc(OCc3cccnc3OC(F)F)cc2c1C(=O)NC1CCNCC1(F)F` (single isomer, unassigned) [cpd 338-En 2] was under 1 µM.
Same read-out and setting: the value for `Cc1oc2ccc(OCc3cccnc3C(F)F)cc2c1C(=O)NC1CCNCC1(F)F` (single isomer, unassigned) [cpd 342-En 1] was under 1 µM.

Still in this experiment, the particulars now being: PS (50 μM) stimulated, cpd 001-199.
In the case of `Cc1ncsc1COc1ccc2oc(C)c(C(=O)NC3CNCCC3(F)F)c2c1` (single isomer, unassigned) [cpd 103-En 1], the IC50 is under 1 µM.
On the same count and under the same terms, the value for `Cc1oc2ccc(OCc3cccnc3C(F)(F)F)cc2c1C(=O)NC1CNCC1(F)F` (single isomer, unassigned) [cpd 105-En 1, N-(4,4-difluoropyrrolidin-3-yl)-2-methyl-5-((2-(trifluoromethyl)pyridin-3-yl)methoxy)benzofuran-3-carboxamide] was under 1 µM; that for `Cc1ncsc1COc1ccc2oc(C)c(C(=O)NC3CNCC3(F)F)c2c1` (single isomer, unassigned) [cpd 106-En 1] was under 1 µM; that for `Cc1oc2ccc(OCc3cccnc3C(F)(F)F)cc2c1C(=O)NC1CNCCC1(F)F` (single isomer, unassigned) [cpd 111-En 1] was under 1 µM.
On the same count and under the same terms, with `Cc1oc2ccc(OCc3cccnc3C(F)(F)F)c(F)c2c1C(=O)NC1CCNCC1(F)F` (single isomer, unassigned) [cpd 112-En 1, N-(3,3-difluoropiperidin-4-yl)-4-fluoro-2-methyl-5-((2-(trifluoromethyl)pyridin-3-yl)methoxy) -benzofuran-3-carboxamide] the figure was under 1 µM; with `Cc1ncsc1COc1ccc2oc(C)c(C(=O)NC3CNCC(F)(F)C3)c2c1` (single isomer, unassigned) [cpd 115-En 1], under 1 µM.
Still for that read-out and setting: with `Cc1oc2ccc(OCc3cccnc3C(F)(F)F)cc2c1C(=O)NC1CNCC(F)(F)C1` (single isomer, unassigned) [cpd 125-En 1] the figure was under 1 µM.
For `Cc1ncsc1COc1ccc2oc(C)c(C(=O)NC3(CO)CCOC3)c2c1` (single isomer, unassigned) [cpd 132-En 1], the IC50 was under 1 µM.
Same read-out and setting: the value for `Cc1oc2ccc(OCc3cccnc3C(F)(F)F)cc2c1C(=O)NC1(CO)CCOC1` (single isomer, unassigned) [cpd 135-En 1] was under 1 µM; that for `Cc1oc2ccc(OCc3cccnc3C(F)(F)F)cc2c1C(=O)NC1CCOC1` (single isomer, unassigned) [cpd 148-En 1] was under 1 µM; that for `Cc1ncsc1COc1ccc2oc(C)c(C(=O)NC3CCOC3)c2c1` (single isomer, unassigned) [cpd 159-En 1] was under 1 µM.
On to `Cc1oc2c(F)cc(OCc3cccnc3C(F)(F)F)cc2c1C(=O)NC1CCNCC1(F)F` (single isomer, unassigned) [cpd 176-En 1, N-(3,3-difluoropiperidin-4-yl)-7-fluoro-2-methyl-5-((2-(trifluoro-methyl)pyridin-3-yl)methoxy)benzofuran-3-carboxamide], for which the IC50 lay in the range of 1 to 20 µM.
Same read-out and setting: with `Cc1oc2c(F)cc(OCc3cccnc3C(F)(F)F)cc2c1C(=O)NC1CCNCC1(F)F` (single isomer, unassigned) [cpd 176-En 2, N-(3,3-difluoropiperidin-4-yl)-7-fluoro-2-methyl-5-((2-(trifluoro-methyl)pyridin-3-yl)methoxy)benzofuran-3-carboxamide] the figure was under 1 µM.

The experiment is the same for the next values; noted with them: PS (50 μM) stimulated, cpds. 400-499.
The molecule `Cc1ncc(COc2ccc3oc(C)c(C(=O)NC(CO)c4nc5ccccc5[nH]4)c3c2)s1` (single isomer, unassigned) [cpd 401-En 2] registered a 50% inhibitory concentration (IC50) of 1 to 20 µM.
Still for that read-out and setting: with `Cc1oc2ccc(OCc3cccnc3C(F)(F)F)cc2c1C(=O)NC(C)CO` (single isomer, unassigned) [cpd 489-En 2] the figure was under 1 µM; with `Cc1ncc(COc2ccc3oc(C)c(C(=O)NC(C)CO)c3c2)s1` (single isomer, unassigned) [cpd 490-En 1], under 1 µM.
Same read-out and setting: the value for `Cc1ncsc1COc1ccc2oc(C)c(C(=O)NC(C)CO)c2c1` (single isomer, unassigned) [cpd 491-En 1] was under 1 µM.

Staying with this experiment, now noted: PS (50 μM) stimulated, cpds. 500-599.
`Cc1ncc(COc2ccc3oc(C)c(C(=O)NC4(CO)CCNC4)c3c2)s1` (single isomer, unassigned) [530-En 2, N-(3-(hydroxymethyl)pyrrolidin-3-yl)-2-methyl-5-((2-methylthiazol-5-yl)methoxy)benzofuran-3-carboxamide] registered an IC50 of under 1 µM.
The same measure, in the same setting: with `Cc1oc2ccc(OCc3cccnc3C(F)(F)F)cc2c1C(=O)NC1(CO)CCCOC1` (single isomer, unassigned) [cpd 531-En 1] the figure was under 1 µM; with `Cc1ncsc1COc1ccc2oc(C)c(C(=O)NC3(CO)CCCOC3)c2c1` (single isomer, unassigned) [cpd 532-En 1], under 1 µM.
Still for that read-out and setting: the value for `Cc1ncc(COc2ccc3oc(C)c(C(=O)NC4(CO)CCOC4)c3c2)s1` (single isomer, unassigned) [cpd 533-En 1] was under 1 µM; that for `Cc1oc2ccc(OCc3ccccn3)cc2c1C(=O)NC1(CO)CCOC1` (single isomer, unassigned) [cpd 534-En 1] was under 1 µM; that for `Cc1oc2ccc(OCc3cccnc3O)cc2c1C(=O)NC1(CO)CCOC1` (single isomer, unassigned) [cpd 535-En 1] was under 1 µM.
On the same count and under the same terms, with `COc1ncccc1COc1ccc2oc(C)c(C(=O)NC3(CO)CCOC3)c2c1` (single isomer, unassigned) [cpd 536-En 1] the figure was under 1 µM; with `Cc1oc2ccc(OCc3cccnc3C(F)(F)F)c(C)c2c1C(=O)NC1CCNCC1(F)F` (single isomer, unassigned) [cpd 538-En 1], 1 to 20 µM.
As to `Cc1oc2ccc(OCc3cccnc3C(F)(F)F)cc2c1C(=O)NC1CCNCC1(F)F` (single isomer, unassigned) [cpd 539-En 1], the concentration for half-maximal inhibition (IC50) lay within 1 to 20 µM.
On the same count and under the same terms, with `Cc1oc2ccc(OCc3cccnc3C(F)(F)F)cc2c1C(=O)NC1CCNCC1(F)F` (single isomer, unassigned) [cpd 539-En 2] the figure was under 1 µM; with `Cc1oc2ccc(OCc3cn(C)nn3)cc2c1C(=O)NC1CCNCC1(F)F` (single isomer, unassigned) [cpd 540-En 1], 1 to 20 µM.
The same measure, in the same setting: with `Cc1oc2ccc(OCc3cn(C)nn3)cc2c1C(=O)NC1CCNCC1(F)F` (single isomer, unassigned) [cpd 540-En 2] the figure was over 20 µM.

The same experiment, now with this note: PS (50 μM) stimulated, cpds. 667-751.
In the case of `Cc1oc2ccc(OCc3c[nH]nc3C(F)(F)F)cc2c1C(=O)NC1(CO)CCNC1=O` (single isomer, unassigned) [730-En 1, N-(3-(Hydroxymethyl)-2-oxopyrrolidin-3-yl)-2-methyl-5-((3-(trifluoromethyl)-1H-pyrazol-4-yl)methoxy)benzofuran-3-carboxamide], the IC50 is under 1 µM.

As a reminder, the IC50 is the point on the concentration scale where inhibition reaches its midpoint. Low readings indicate inhibition by little substance, high ones a need for much substance.
